PubChem BioAssay (NCI)
Several values for one entry are separate records, joined by “and”; a condition that tells them apart may be missing. Equal values may be shown once.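 Compound exposure: 48 hours, 5 concentrations, 96-well plates. GI50 marks 50% less growth. TGI: total growth inhibition.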

Legend:
Experiment in all cases: DTP human tumour cell line panel, 48 h
[1] = test system: SR leukemia
[2] = test system: OVCAR-5 ovarian
[3] = test system: T-47D breast
[4] = test system: RXF 393 renal
[5] = test system: HCT-116 colon
[6] = test system: CAKI-1 renal
[7] = test system: TK-10 renal
[8] = test system: OVCAR-3 ovarian
[9] = test system: SK-MEL-5 melanoma
[10] = test system: UACC-257 melanoma

| SMILES | TGI [1] | TGI [2] | TGI [3] | TGI [4] | TGI [5] | TGI [6] | TGI [7] | TGI [8] | TGI [9] | TGI [10] | GI50 [1] | GI50 [2] | GI50 [3] | GI50 [4] | GI50 [5] | GI50 [6] | GI50 [7] | GI50 [8] | GI50 [9] | GI50 [10] |
| --- | --- | --- | --- | --- | --- | --- | --- | --- | --- | --- | --- | --- | --- | --- | --- | --- | --- | --- | --- | --- |
| Nc1cc(S(N)(=O)=O)ccc1SSc1ccc(S(N)(=O)=O)cc1N | > 100 µM | > 100 µM | > 100 µM | > 100 µM | > 100 µM | > 100 µM | > 100 µM | > 100 µM | > 100 µM | > 100 µM |  |  |  |  |  |  |  |  |  |  |
| CC(C)C[C@H](NC(=O)CCn1ccc2ncccc2c1=O)B(O)O | > 100 µM | > 100 µM | > 55 µM | 15.2 µM | 19 µM | > 100 µM | 61.8 µM | 20.6 µM | 19.2 µM | 44.1 µM | 3.08 µM | 23.2 µM | 5.31 µM | 3.54 µM | 3.64 µM | 21.6 µM | 6.44 µM | 4.1 µM | 3.97 µM | 8.25 µM |
| CN1C[C@@H]2Cn3c(c(C4=C(c5cn(C)c6ccccc56)C(=O)NC4=O)c4ccccc43)C[C@H]2C1 | 14.4 µM and 7.38 µM | 23.1 µM and 17.2 µM | 9.46 µM and 11.5 µM | 7.19 µM and 6.68 µM | 9.66 µM and 8.22 µM | 8.28 µM and 9.96 µM | 7.6 µM and 8.41 µM | 9.42 µM and 10.9 µM | 8.01 µM and 7.28 µM | 8.01 µM and 7.6 µM | 4.89 µM and 1.77 µM | 6.86 µM and 5.42 µM | 4.26 µM and 5.32 µM | 3.53 µM and 3.17 µM | 4.2 µM and 3.02 µM | 3.43 µM and 4.29 µM | 3.5 µM and 3.74 µM | 4.42 µM and 4.64 µM | 4.17 µM and 3.68 µM | 4.03 µM and 3.93 µM |
| CC(C)C[C@H](NC(=O)[C@H](Cc1cccc2ccccc12)NS(=O)(=O)c1cccc2cccnc12)B(O)O | 0.00812 µM | 0.138 µM and 0.246 µM | 0.0269 µM and < 0.0218 µM | 0.0273 µM and < 0.0237 µM | 0.0203 µM and < 0.0351 µM | 0.198 µM and 1.19 µM | 0.351 µM | 0.0149 µM and 0.0309 µM | 0.0714 µM and 0.0206 µM | 0.029 µM and 0.0357 µM | 0.000169 µM | 0.00827 µM | 0.000928 µM | 0.00919 µM | 0.00101 µM | 0.032 µM | 0.036 µM | 0.000595 µM | 0.00539 µM |  |
| COc1cccc(CCC(=O)c2cc3c(N)c(C(=O)Nc4cccc(Cl)c4C)sc3nc2C)c1 | > 100 µM | > 100 µM | > 100 µM | 2.95 µM | > 100 µM | > 100 µM | > 100 µM | 2.78 µM | 11 µM | > 100 µM | 0.431 µM | 2.68 µM | 0.588 µM | 0.393 µM | 0.448 µM | 0.535 µM | 6.46 µM | 0.37 µM | 0.65 µM | 4.25 µM |
| CCNNC(=O)[C@@H]1[C@H](c2cc(OC)c(OC)c(OC)c2)c2cc3c(cc2[C@H](O)[C@H]1CO)OCO3 | > 100 µM | > 100 µM | > 100 µM | > 100 µM | > 100 µM | > 100 µM | > 100 µM | 0.804 µM | 0.635 µM |  | 0.315 µM | 0.519 µM | > 100 µM | 0.34 µM | 0.354 µM | 0.596 µM | 30.8 µM | 0.275 µM | 0.236 µM | 4.37 µM |
| CCc1ccc2nccc(NCCCN(C)C)c2c1[N+](=O)[O-] | > 100 µM | 90.8 µM | > 100 µM | > 100 µM | > 100 µM | > 100 µM | > 100 µM | > 100 µM | > 100 µM | 81.3 µM |  |  |  |  |  |  |  |  |  |  |
| CCOC(=O)C(C(=O)OCC)C(=O)c1ccccc1C(=O)c1ccccc1 | 48.8 µM | > 100 µM | > 100 µM | > 100 µM | > 100 µM | > 100 µM | > 100 µM | > 100 µM | > 100 µM | > 100 µM |  |  |  |  |  |  |  |  |  |  |
| CN(CC(=O)O)Cc1oc(CO)cc(=O)c1O | > 100 µM | > 100 µM | > 100 µM | > 100 µM | > 100 µM | > 100 µM | > 100 µM | > 100 µM | > 100 µM | > 100 µM |  |  |  |  |  |  |  |  |  |  |
| Nc1ccc(C(OC(=O)c2cc3ccccc3c(Cc3c(O)c(C(=O)OC(c4ccc(N)cc4)(c4ccc(N)cc4)c4ccc(N)cc4)cc4ccccc34)c2O)(c2ccc(N)cc2)c2ccc(N)cc2)cc1 | > 100 µM | 17.2 µM | 18.9 µM | 6.7 µM | 11.4 µM | > 100 µM | 21.3 µM | 3.76 µM | 2.3 µM | 5.96 µM | 4.18 µM | 2.7 µM | 0.405 µM | 1.83 µM | 0.784 µM | 13.6 µM | 5.23 µM | 1.25 µM | 0.455 µM | 0.426 µM |
| O=c1oc2c3ccc4cnccc4c3[nH]c2c2ccccc12 | 4.19 µM | 40.9 µM | > 100 µM | 19.4 µM | 2.99 µM | > 100 µM | > 100 µM | 32.4 µM | 22.2 µM | 57.6 µM | 1.78 µM | 16.9 µM | 9.78 µM | 5.72 µM | 1.58 µM | 47 µM | 43.8 µM | 18.3 µM | 8.01 µM | 20.3 µM |
| COc1cc(C2CC(=O)Nc3c2ccc2ccccc32)cc(Br)c1OC (configuration not stated) | 16.7 µM | > 79.3 µM | > 100 µM | 7.05 µM | > 34.7 µM | > 100 µM | > 100 µM | 0.809 µM | 9.93 µM | 68.1 µM | 0.35 µM | 2.01 µM | 0.811 µM | 0.78 µM | 0.373 µM | 0.375 µM | 13.4 µM | 0.309 µM | 0.414 µM | 0.504 µM |
| O=S(=O)(NC1=NCCN1C(=S)SN1CCn2c1nsc2=S)c1ccccc1Cl | 3.31 µM | 27.7 µM | > 100 µM | 46.5 µM | 28.2 µM | 41.6 µM | 64.2 µM | 17.7 µM | 31.1 µM | > 100 µM | 0.469 µM | 12.2 µM | 17 µM | 4.38 µM | 12.2 µM | 12.3 µM | 16.3 µM | 3.89 µM | 15.8 µM | 31.6 µM |
| COc1c(Cl)ccc2c(-c3nc4cc(Cl)c(F)cc4s3)cc(=O)oc12 | 8.23 µM | > 53.3 µM | 45.5 µM | 17.7 µM | > 61.6 µM |  | 46.1 µM | 22 µM | > 88.4 µM | > 73.6 µM | 2.2 µM | 15.3 µM | 13 µM | 5.83 µM | 14.1 µM | 1.98 µM | 17.4 µM | 3.94 µM | 26.5 µM | 26.5 µM |
